Results published in patent US7135466B2 (Kirin Beer Kabushiki Kaisha, priority 1999, dated 2006).
Read-outs that look alike come from different tables or passages of the source.

What was measured:
c-kit = target: T1, c-kit (Homo sapiens, UniProt P10721); experiment: Inhibitory activity against c-kit autophosphorylation (MO7e cells, h-SCF); format: cell-based; conditions: for IC50: MO7e cells, read-out: c-kit IC50; for inhibition at 1 µM: Mo7e, at 1000 nM
T1 construct: MO7e (human megakaryocytic leukemia cell line) which had been arrested for 20 hr; endogenous in cells; host or cells: MO7e human megakaryocytic leukemia cell line
T1 sequence (P10721 26-976): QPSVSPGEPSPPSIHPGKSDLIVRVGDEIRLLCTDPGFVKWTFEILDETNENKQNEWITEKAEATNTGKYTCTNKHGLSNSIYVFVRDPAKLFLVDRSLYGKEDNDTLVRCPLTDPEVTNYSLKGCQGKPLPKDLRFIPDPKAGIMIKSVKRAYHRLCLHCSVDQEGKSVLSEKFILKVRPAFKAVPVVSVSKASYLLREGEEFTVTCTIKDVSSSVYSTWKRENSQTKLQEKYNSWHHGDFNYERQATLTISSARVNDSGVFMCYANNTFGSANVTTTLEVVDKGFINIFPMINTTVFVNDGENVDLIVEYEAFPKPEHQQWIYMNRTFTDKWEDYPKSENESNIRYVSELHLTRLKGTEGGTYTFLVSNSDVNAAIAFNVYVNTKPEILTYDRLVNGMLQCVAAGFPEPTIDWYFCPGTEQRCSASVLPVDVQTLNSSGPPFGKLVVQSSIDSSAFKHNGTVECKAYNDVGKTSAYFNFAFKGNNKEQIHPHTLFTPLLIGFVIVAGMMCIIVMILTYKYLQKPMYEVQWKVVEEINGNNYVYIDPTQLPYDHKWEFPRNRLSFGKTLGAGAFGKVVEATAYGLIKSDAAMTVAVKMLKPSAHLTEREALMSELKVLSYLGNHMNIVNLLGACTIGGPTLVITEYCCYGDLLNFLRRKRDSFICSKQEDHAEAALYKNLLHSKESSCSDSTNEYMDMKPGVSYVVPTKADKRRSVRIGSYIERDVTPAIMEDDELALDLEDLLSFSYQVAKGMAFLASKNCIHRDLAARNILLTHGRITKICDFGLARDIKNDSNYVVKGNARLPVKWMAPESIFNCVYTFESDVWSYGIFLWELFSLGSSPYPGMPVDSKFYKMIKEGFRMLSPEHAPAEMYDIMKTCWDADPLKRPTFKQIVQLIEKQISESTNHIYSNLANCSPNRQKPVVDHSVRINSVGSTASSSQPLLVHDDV
How it was run: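 Phospho-c-kit ELISA: plate-bound PY-20 anti-phosphotyrosine captures lysate, anti-c-kit plus peroxidase-labelled secondary antibody detect, read at 450 nm. Lysates come from 20 hr-arrested MO7e cells given compound for 1 hr before a 5 min 50 ng/ml h-SCF stimulus.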

PDGF-Ra = target: T2, PDGF-Ra (Homo sapiens, UniProt P16234); experiment: Inhibitory activity against PDGF-Ra phosphorylation by PDGF-AA stimulation using G292; format: cell-based; conditions: for IC50: > means inhibition at indicated concentration not more than 50%, < and << not less than 50%, read-out: PDGF (E) IC50; for inhibition at 0.1 µM: G292, figure within parentheses in >100( ), at 100 nM, read-out: PDGF (E) inhibition (%) at 100 nM
T2 construct: host or cells: G-292 human osteosarcoma cells
T2 sequence (P16234 24-1089): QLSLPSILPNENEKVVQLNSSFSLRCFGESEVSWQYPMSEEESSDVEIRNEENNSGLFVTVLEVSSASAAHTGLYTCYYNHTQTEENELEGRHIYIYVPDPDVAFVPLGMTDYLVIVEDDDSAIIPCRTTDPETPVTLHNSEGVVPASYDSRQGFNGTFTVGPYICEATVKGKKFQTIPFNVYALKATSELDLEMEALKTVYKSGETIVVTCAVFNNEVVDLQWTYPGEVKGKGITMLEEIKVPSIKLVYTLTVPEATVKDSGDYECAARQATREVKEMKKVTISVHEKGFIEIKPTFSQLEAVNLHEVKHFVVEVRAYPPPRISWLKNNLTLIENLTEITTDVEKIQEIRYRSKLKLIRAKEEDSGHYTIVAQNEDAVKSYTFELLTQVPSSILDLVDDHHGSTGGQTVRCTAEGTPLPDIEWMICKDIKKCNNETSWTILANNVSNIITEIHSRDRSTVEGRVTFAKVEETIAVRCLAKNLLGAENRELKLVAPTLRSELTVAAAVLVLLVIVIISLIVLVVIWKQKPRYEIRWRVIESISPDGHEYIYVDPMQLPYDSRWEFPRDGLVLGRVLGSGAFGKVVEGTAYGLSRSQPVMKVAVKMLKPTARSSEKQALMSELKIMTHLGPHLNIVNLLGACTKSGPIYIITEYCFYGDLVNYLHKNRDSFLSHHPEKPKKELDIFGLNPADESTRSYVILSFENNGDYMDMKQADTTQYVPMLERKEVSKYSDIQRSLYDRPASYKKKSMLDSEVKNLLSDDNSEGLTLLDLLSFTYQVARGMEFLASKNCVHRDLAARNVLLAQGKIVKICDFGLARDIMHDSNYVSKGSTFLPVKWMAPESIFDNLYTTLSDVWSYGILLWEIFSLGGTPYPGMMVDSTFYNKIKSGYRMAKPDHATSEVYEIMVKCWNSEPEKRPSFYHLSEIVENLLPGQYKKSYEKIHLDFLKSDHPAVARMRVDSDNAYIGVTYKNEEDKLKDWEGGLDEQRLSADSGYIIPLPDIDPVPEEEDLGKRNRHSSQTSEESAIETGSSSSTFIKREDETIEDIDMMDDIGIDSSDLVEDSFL
How it was run: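 Read-out: A450 from a sandwich ELISA (PY-20 capture, anti-PDGF-Ra detection, peroxidase colour) of lysates from G-292 cells given compound for 1 hr at 37 °C before a 5 min challenge with PDGF-AA at 50 ng/ml.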

[1] = figure within parentheses in −( ) or >1000( )

Structure (SMILES) | IC50 (c-kit; h-SCF 50 ng/ml) [nM] | IC50 (PDGF-Ra; Pharmacological Test Example 1) [nM] | IC50 (PDGF-Ra) [nM] | other results
CCCCC(CCCC)OC(=O)Nc1ccc(Oc2ccnc3cc(OC)c(OC)cc23)cc1 [Example 368, 1-Butylpentyl N-{4-[(6,7-dimethoxy-4-quinolyl)oxy]phenyl}carbamate] | 426 | 64 |  | 
COc1cc2nccc(Oc3ccc(NC(=S)NC(=O)c4ccccc4I)c(F)c3)c2cc1OC [Example 908, N-{4-[(6,7-Dimethoxy-4-quinolyl)oxy]-2-fluorophenyl}-N′-(2-iodobenzoyl)thiourea] |  |  | 9 | IC50 (c-kit; h-SCF stimulation): 757 nM
COc1cc2nccc(Oc3ccc(NC(=O)NC4CCN(Cc5ccccc5Cl)C4)cc3)c2cc1OC (stereo not drawn) [Example 579, N-[1-(2-Chlorobenzyl)tetrahydro-1H-3-pyrrolyl]-N′-{4-[(6,7-dimethoxy-4-quinolyl)oxy]phenyl}urea] |  |  | 22 | IC50 (c-kit; 50 ng/ml h-SCF): 145 nM
CCN(C(=O)OC1CCCCC1)c1ccc(Oc2ncnc3cc(OC)c(OC)cc23)cc1 [Example 477, Cyclohexyl N-{4-[(6,7-dimethoxy-4-quinazolinyl)oxy]phenyl}-N-ethylcarbamate] |  |  | 59 | IC50 (c-kit; 50 ng/ml h-SCF): 248 nM
COc1cc2ncnc(Oc3ccc(NC(=O)OCCSc4ccc(C)cc4)cc3)c2cc1OC [Example 140] | 234 | < 10 |  | 
COc1cc2ncnc(Oc3ccc(NC(=S)NC(=O)c4cc(C)oc4C)cc3)c2cc1OC [Example 718, N-{4-[(6,7-Dimethoxy-4-quinazolinyl)oxy]phenyl}-N′-[(2,5-dimethyl-3-furyl)carbonyl]thiourea] |  |  | < 10 | inhibition at 1 µM (c-kit; [1]): 19%
COc1ccc(OC)c(COC(=O)Nc2ccc(Oc3ncnc4cc(OC)c(OC)cc34)cc2)c1 [Example 70, 2,5-Dimethoxybenzyl N-{4-[(6,7-dimethoxy-4-quinazolinyl)oxy]phenyl}carbamate] | 451 | < 10 |  | 
COc1cc2nccc(Oc3ccc(NC(=S)NC(=O)N(C)c4ccccc4)cc3)c2cc1OC [Example 1046, N-{4-[(6,7-Dimethoxy-4-quinolyl)oxy]phenyl}-{[(methylanilino)carbonyl]amino}methanethioamide] |  |  | 38 | IC50 (c-kit; h-SCF stimulation): 202 nM
COc1ccc(COC(=O)Nc2ccc(Oc3ccnc4cc(OC)c(OC)cc34)cc2)cc1OC [Example 62, 3,4-Dimethoxybenzyl N-{4-[(6,7-dimethoxy-4-quinolyl)oxy]phenyl}carbamate] | 70 | 13 |  | 
COc1cc2ncnc(Oc3ccc(NC(=O)OCc4ccccc4Cl)c([N+](=O)[O-])c3)c2cc1OC [Example 504, 2-Chlorobenzyl N-{4-[(6,7-dimethoxy-4-quinazolinyl)oxy]-2-nitrophenyl}carbamate] |  |  | 46 | inhibition at 1 µM (c-kit; [1]): 42%
COc1cc2ncnc(Oc3ccc(N(C)C(=O)OC4CCCCC4)cc3)c2cc1OC [Example 476, Cyclohexyl N-{4-[(6,7-dimethoxy-4-quinazolinyl)oxy]phenyl}-N-methylcarbamate] |  |  | < 10 | IC50 (c-kit; 50 ng/ml h-SCF): 172 nM
COc1ccc(OCCCOC(=O)Nc2ccc(Oc3ccnc4cc(OC)c(OC)cc34)c(C)c2C)cc1 [Example 43, 3-(4-Methoxyphenoxy)propyl N-{4-[(6,7-dimethoxy-4-quinolyl)oxy]-2,3-dimethylphenyl}carbamate] | 158 | < 10 |  | 
COc1cc2ncnc(Oc3ccc(NC(=O)OCCC4CCCCC4)c(Cl)c3)c2cc1OC [Example 357, 2-Cyclohexylethyl N-{2-chloro-4-[(6,7-dimethoxy-4-quinazolinyl)oxy]phenyl}carbamate] | 116 | < 10 |  | 
COc1cc2nccc(Oc3ccc(OCCCOc4cccc(C)c4)cc3)c2cc1OC [Example 791, 6,7-Dimethoxy-4-{4-[3-(3-methylphenoxy)propoxy]phenoxy}quinoline] |  |  | 3 | IC50 (c-kit; 50 ng/ml h-SCF): 208 nM
COc1cc2nccc(Oc3ccc(NC(=S)NC(=O)COc4ccccc4C)cc3)c2cc1OC [Example 739, N-{4-[(6,7-Dimethoxy-4-quinolyl)oxy]phenyl}-N′-[2-(2-methylphenoxy)acetyl]thiourea] |  |  | < 10 | IC50 (c-kit; 50 ng/ml h-SCF): 234 nM
COc1cc2ncnc(Oc3ccc(NC(=O)OCc4ccc(C)cc4)cc3)c2cc1OC [Example 1, 4-Methylbenzyl N-{4-[(6,7-dimethoxy-4-quinazolinyl)oxy]phenyl}carbamate] | 52 | < 10 |  | 

Structure (SMILES) | IC50 (c-kit; h-SCF 50 ng/ml) [nM] | IC50 (PDGF-Ra; Pharmacological Test Example 1) [nM] | IC50 (PDGF-Ra) [nM] | other results
COc1cc2ncnc(Oc3ccc(OCC(=O)N4CCC(c5ccccc5)CC4)cc3)c2cc1OC [Example 803, 2-{4-[(6,7-Dimethoxy-4-quinazolinyl)oxy]phenoxy}-1-(4-phenylpiperidino)-1-ethanone] |  |  | 13 | inhibition at 1 µM (c-kit; [1]): 20%
COc1cc2ncnc(Oc3ccc(NC(=O)N[C@H]4CCN(Cc5ccccc5)C4)c(Cl)c3)c2cc1OC [Example 576, N-[(3S)-1-Benzyltetrahydro-1H-3-pyrrolyl]-N′-{2-chloro-4-[(6,7-dimethoxy-4-quinazolinyl)oxy]phenyl}urea] |  |  | 36 | IC50 (c-kit; 50 ng/ml h-SCF): 151 nM
COc1cc2nccc(Oc3ccc(NC(=S)NC(=O)N(C(C)C)C(C)C)cc3Cl)c2cc1OC [Example 1050, N-{3-Chloro-4-[(6,7-dimethoxy-4-quinolyl)oxy]phenyl}-{[(diisopropylamino)carbonyl]amino}methanethioamide] |  |  | 23 | IC50 (c-kit; h-SCF stimulation): 579 nM
COc1cccc(C(C)OC(=O)Nc2ccc(Oc3ncnc4cc(OC)c(OC)cc34)cc2Cl)c1 (stereo not drawn) [Example 56, 1-(3-Methoxyphenyl)ethyl N-{2-chloro-4-[(6,7-dimethoxy-4-quinazolinyl)oxy]phenyl}carbamate] | 774 | 11 |  | 
CCCC(CC)OC(=O)Nc1ccc(Oc2ccnc3cc(OC)c(OC)cc23)c(C)c1C (stereo not drawn) [Example 277, 1-Ethylbutyl N-{4-[(6,7-dimethoxy-4-quinolyl)oxy]-2,3-dimethylphenyl}carbamate] | 53 | 10 |  | 
COc1cc2ncnc(Oc3ccc(NC(=S)NC(=O)c4ccncc4)cc3)c2cc1OC [Example 1155, N-{4-[(6,7-Dimethoxy-4-quinazolinyl)oxy]phenyl}-N′-(4-pyridylcarbonyl)thiourea] |  |  | 17 | inhibition at 1 µM (c-kit; figure in parentheses in −( )): 31%
COc1cc2nccc(Oc3ccc(NC(=S)NC(=O)C4CC4)cc3Cl)c2cc1OC [Example 1058, N-{3-Chloro-4-[(6,7-dimethoxy-4-quinolyl)oxy]phenyl}-N′-cyclopropylcarbonylthiourea] |  |  | 8 | inhibition at 1 µM (c-kit; figure in parentheses in −( )): 21%
COc1cc2nccc(Oc3ccc(NC(=O)OCCCOc4ccc(F)cc4)cc3)c2cc1OC [Example 152, 3-(4-Fluorophenoxy)propyl N-{4-[(6,7-dimethoxy-4-quinolyl)oxy]phenyl}carbamate] | < 30 | < 10 |  | 
CCOc1ccccc1C(C)OC(=O)Nc1ccc(Oc2ncnc3cc(OC)c(OC)cc23)cc1Cl (stereo not drawn) [Example 131, 1-(2-Ethoxyphenyl)ethyl N-{-chloro-4-[(6,7-dimethoxy-4-quinazolinyl)oxy]phenyl}carbamate] |  | 38 |  | inhibition at 1 µM (c-kit; figure in parentheses in −( )): 40%
COc1cc2ncnc(Oc3ccc(NC(=S)NC(=O)C(C)Oc4ccccc4Cl)cc3)c2cc1OC (stereo not drawn) [Example 1144, N-[2-(2-Chlorophenoxy)propanoyl]-N′-{4-[(6,7-dimethoxy-4-quinazolinyl)oxy]phenyl}thiourea] |  |  | 28 | inhibition at 1 µM (c-kit; figure in parentheses in −( )): 30%
CCN(CC)CCNC(=O)Nc1ccc(Oc2ccnc3cc(OC)c(OC)cc23)cc1Cl [Example 650, N-{2-Chloro-4-[(6,7-dimethoxy-4-quinolyl)oxy]phenyl}-N′-[2-(diethylamino)ethyl]urea] |  |  | 32 | IC50 (c-kit; 50 ng/ml h-SCF): 420 nM
CCCc1ccc(C(=O)NC(=S)Nc2ccc(Oc3ccnc4cc(OC)c(OC)cc34)c(Cl)c2)cc1 [Example 1001, N-{3-Chloro-4-[(6,7-dimethoxy-4-quinolyl)oxy]phenyl}-N′-(4-propylbenzoyl)thiourea] |  |  | < 10 | inhibition at 1 µM (c-kit; figure in parentheses in −( )): 34%
COc1cc2nccc(Oc3ccc(NC(=O)Oc4c(OC)cccc4OC)cc3)c2cc1OC [Example 280, 2,6-Dimethoxyphenyl N-{4-[(6,7-dimethoxy-4-quinolyl)oxy]phenyl}carbamate] | 370 | < 10 |  | 
CCCCCOc1ccc(C(=O)NC(=S)Nc2ccc(Oc3ccnc4cc(OC)c(OC)cc34)cc2)cc1 [Example 753, N-{4-[(6,7-Dimethoxy-4-quinolyl)oxy]phenyl}-N′-[4-(pentyloxy)benzoyl]thiourea] |  |  | > 100 | inhibition at 1 µM (c-kit; [1]): 9%; inhibition at 0.1 µM (PDGF-Ra): 28%
C=C(C)COC(=O)Nc1ccc(Oc2ccnc3cc(OC)c(OC)cc23)c(C)c1C [Example 406, 2-Methylallyl N-{4-[(6,7-dimethoxy-4-quinolyl)oxy]-2,3-dimethylphenyl}carbamate] |  |  | < 10 | IC50 (c-kit; 50 ng/ml h-SCF): < 30 nM
COc1cc2nccc(Oc3cc(C)c(NC(=S)NCCN4CCCCC4)cc3C)c2cc1OC [Example 514] |  |  | > 100 | inhibition at 1 µM (c-kit; [1]): 29%; inhibition at 0.1 µM (PDGF-Ra): 31%
